This note sets out measurements from patent publication US5556990A, “Polyarylcarbamoylaza- and -carbamoylalkanedioic acids” (Rhone-Poulenc Rorer Pharmaceuticals Inc., priority 1994, dated 1996).

Where a name gives a salt, the structure may show the parent alone.

The assay deals with T1, squalene synthase (Rattus norvegicus, UniProt Q02769).
T1 construct: Microsomes are prepared by centrifugation (100,000 g) and then resuspended in the assay buffer; from tissue; host or cells: liver microsomes of male Sprague-Dawley rats (animals from Taconic Farms)
T1 sequence (Q02769 1-416): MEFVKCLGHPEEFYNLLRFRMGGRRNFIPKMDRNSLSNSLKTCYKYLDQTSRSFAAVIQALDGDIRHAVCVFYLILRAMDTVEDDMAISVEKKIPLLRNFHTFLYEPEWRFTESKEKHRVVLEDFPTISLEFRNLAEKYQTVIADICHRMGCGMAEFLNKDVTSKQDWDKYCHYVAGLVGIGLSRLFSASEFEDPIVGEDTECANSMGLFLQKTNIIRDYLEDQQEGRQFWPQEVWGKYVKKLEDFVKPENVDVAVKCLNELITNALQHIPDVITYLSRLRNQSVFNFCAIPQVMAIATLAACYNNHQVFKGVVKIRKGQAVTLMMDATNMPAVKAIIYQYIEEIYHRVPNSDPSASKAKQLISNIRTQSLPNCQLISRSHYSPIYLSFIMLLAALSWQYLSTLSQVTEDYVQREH
Put plainly: Squalene Synthase Inhibition Assay (rat liver microsomes, [3H]FPP substrate, HEPES buffer). It is filed as biochemical, male Sprague-Dawley rats. The method, then:
Squalene Synthase Inhibition Assay
The squalene synthase assay used is described by Amin et al. in "Bisphosphonates Used for the Treatment of Bone Disorders Inhibit Squalene Synthase and Cholesterol Biosynthesis," Journal of Lipid Research, 33, 1657-1663 (1992).
I. Preparation of Assay Substances:
Test solutions are prepared fresh in 100% DMSO or dH2 O. Subsequent dilutions are made in the same solvent. Compounds are tested initially at 1 μM (final concentrations).
Potassium Phosphate (50 mM,) pH 7.4, and HEPES (4-(2-hydroxyethyl)-1-piperazineethanesulfonic acid, 50 mM) pH 7.4 stock buffers are prepared and stored at 4° C. until use.
C) Microsomal Enzyme Preparation:
Fresh livers from male Sprague-Dawley rats (Taconic Farms, Germantown, N.Y.) weighing 150-200 g are collected after exsanguination. All subsequent procedures are performed at 4° C. The liver is homogenized in the assay buffer (50 mM, pH 7.4). Cellular fractions are separated as described by Popjak, G. in "Enzymes of sterol biosynthesis in liver and intermediates of sterol biosynthesis," Meth. Enzymol. 15 393-454 (1969). Microsomes are prepared by centrifugation (100,000 g) and then resuspended in the assay buffer. Microsomes are rehomogenized with a motor-driven Teflon pestle to yield a uniform suspension (~30 mg protein/ml), aliquoted, and stored at -80° C. until use.
II. Squalene Synthase Assay
The procedure is a modification of those described by Popjack (vida supra) and Poulter et al. in "Squalene synthase. Inhibition by ammonium analogues of carbocationic intermediates in the conversion of presqualene diphosphate to squalene" J. Am. Chem. Soc. 111, 3734-3739 (1989). The assay is performed in 1 ml of 50 mM assay buffer, pH 7.4, containing 10 mM MgCl2, 0.5 mM NADPH, microsomes (30 μg protein), a test compound dissolved in distilled water or dimethylsulfoxide, and substrate [^3 H]FPP (0.5 μM, 0.27 Ci/mmol) in a 16×125 mm glass screw-cap tube. All components except [3H]FPP are preincubated for 10 min. at 37° C. The reaction is initiated by the addition of [^3 H]FPP. After 10 min at 37° C., the reaction is terminated by the addition of 1 ml 15% KOH in ethanol. The tubes are incubated at 65° C. for 30 min. to solubilize proteins. The mixture is extracted with 5 ml petroleum ether for 10 min. After freezing the lower aqueous phase, the organic phase is transferred to glass tubes containing 2 ml distilled water. After washing the lower aqueous phase is frozen and the petroleum ether phase is removed and counted with 10 ml Ready Safe liquid scintillation cocktail using a Beckman LS-9000 scintillation counter. DPM values are adjusted against a blank (no enzyme).
The difference in radioactivity in the presence and absence of the test compound is used to determine the level of inhibition. The IC50 values are calculated using a linear regression program of Tallarida and Murray (1987). Tallarida, R. J. and Murray, R. B. Manual of pharmacologic calculations with computer programs. Springer-Verlag, 1987.
In general terms: Microsomes from liver hold many membrane-bound enzymes, among them those of drug oxidation.
Take “4-{3-[4-(2-methoxyquinolin-6-yl)phenyl]-1,2,5,6-tetrahydro-pyridylcarbonyl}-3-hydroxy-3-carboxybutanoic acid, disodium salt [Example 12]”: the IC50 – broadly, the midpoint of a concentration-inhibition curve – turned out to be 36 nM.
The same measure for `CCOC(=O)CC(O)(CC(=O)N[C@@H]1CCCC[C@H]1OCc1ccc(-c2nc3ccccc3o2)cc1)C(=O)OCC` (relative stereo): 10000 nM.
In turn, `O=C(O)CC(O)(CC(=O)N[C@@H]1CCCC[C@H]1OCc1ccc(-c2nc3ccccc3o2)cc1)C(=O)O` (relative stereo) [Example 5, 4-[2-α-(4-Benzoxazol-2-ylbenzyloxy)cyclohexyl-β-carbamoyl]-3-hydroxy-3-carboxybutyric acid] returned an IC50 of 190 nM.
As to `O=C(O)CC(O)(CC(=O)N1CCCC(O)(c2ccc(-c3ccc4ccccc4c3)cc2)C1)C(=O)O` (stereo not drawn) [Example 1, 4-[3-Hydroxy-3-(4-naphth2-ylphenyl)piperidin-1-ylcarbonyl]-3-hydroxy-3-carboxybutanoic acid], the IC50 turned out to be 27 nM.
The same measure for `O=C(O)CC(O)(CC(=O)N1CCCC(COCc2ccc(-c3nc4ccccc4o3)cc2)C1)C(=O)O` (stereo not drawn) [Example 19, 4-[3-(4-(Benzoxazol-2-yl)benzyloxymethyl)piperidin-1-ylcarbonyl]-3-hydroxy-3-carboxybutanoic acid, disodium salt]: 51 nM.
Under `CC[C@@H](COCc1ccc(-c2nc3ccccc3o2)cc1)NC(=O)CC(O)(CC(=O)O)C(=O)O` (stereo partly drawn) [Example 22, 3-{N-[1-(4-Benzoxazol-2-ylbenzyloxy)but-2-yl]carbamoyl}-3-hydroxy-3-carboxybutanoic acid, disodium salt] stands 77 nM; under `COc1cccc(-c2ccc(C3(O)CCCN(C(=O)CC(O)(CC(=O)O)C(=O)O)C3)cc2)c1` (stereo not drawn) [Example 24, disodium salt], 100 nM.
In the case of `CC(O)(CNC(=O)C(O)(CC(=O)O)CC(=O)O)c1ccc(-c2ccc3ccccc3c2)cc1` (stereo not drawn) [Example 28, 3-Hydroxy-3-{-N-[2-hydroxy-2-(4-naphthalen-2-yl-phenyl)prop-2-yl]carbamoyl}pentandioic acid, disodium salt], half-maximal inhibition (IC50) was put at 100 nM.
For the compound `O=C(O)CC(NC(=O)NC1CCCCC1OCc1ccc(-c2nc3ccccc3o2)cc1)C(=O)O` [Example 30, 3-(R)-(N-{2-α-[4-(Benzoxazol-2-yl)benzyloxy]cyclohexyl}-β-carbamoylaza)-3-carboxypropanoic acid], the IC50 came out at 2600 nM.
